Measured values published in patent publication US20240391896A1 (Nantong Jutai Biotech Co., Ltd., priority 2021, published 2024).
Read-outs that look alike come from different tables or passages of the source.

Tests used:
BCL9/β-catenin = target: T1, BCL9/β-catenin (Homo sapiens, UniProt P35222); experiment: FP (BCL-9 avidity) fluorescence polarization competition assay with beta-catenin and FAP-Bcl9 tracer; type: binding
T1 sequence (P35222 1-781): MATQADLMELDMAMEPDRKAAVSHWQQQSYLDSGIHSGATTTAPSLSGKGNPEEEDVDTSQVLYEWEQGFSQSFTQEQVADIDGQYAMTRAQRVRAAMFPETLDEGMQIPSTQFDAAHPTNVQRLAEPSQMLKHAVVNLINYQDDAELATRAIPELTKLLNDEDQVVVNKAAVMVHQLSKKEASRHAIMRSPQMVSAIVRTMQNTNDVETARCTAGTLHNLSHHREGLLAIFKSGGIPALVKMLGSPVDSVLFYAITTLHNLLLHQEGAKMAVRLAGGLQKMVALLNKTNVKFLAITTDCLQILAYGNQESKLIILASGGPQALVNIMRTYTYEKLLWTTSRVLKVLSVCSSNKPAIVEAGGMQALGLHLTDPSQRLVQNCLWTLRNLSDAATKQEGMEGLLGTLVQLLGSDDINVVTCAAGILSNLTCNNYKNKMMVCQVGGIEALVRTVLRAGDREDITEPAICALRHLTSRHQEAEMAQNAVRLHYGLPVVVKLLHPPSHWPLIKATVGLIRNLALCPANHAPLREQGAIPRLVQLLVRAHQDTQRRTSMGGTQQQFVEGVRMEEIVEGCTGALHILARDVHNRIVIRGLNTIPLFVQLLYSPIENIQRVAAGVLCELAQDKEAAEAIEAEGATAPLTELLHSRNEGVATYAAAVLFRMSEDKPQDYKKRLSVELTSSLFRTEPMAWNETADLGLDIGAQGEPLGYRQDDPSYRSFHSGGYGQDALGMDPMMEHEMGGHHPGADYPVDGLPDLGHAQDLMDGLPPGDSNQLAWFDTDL
Method: Incubating for 2 hours on a horizontal shaker. Then adding 2 nM FAP-Bcl9 tracer to each well, and after incubation for 2H on a horizontal shaker, measuring the […].

Human AXIN2 = experiment: qPCR of AXIN2 expression in HCT116 cells; type: cell-based; conditions: HCT-116, Table 2, HCT116 cells, AXIN2 vs β-actin, 24 hours
Method: Cells were digesting, counting, and plating cells in 24-well plates (flat bottom, clear), with 3×10^5 cells/500 ul DMEM (10% FBS) per well. • 2. Observing the state of cells on the next day, and start dosing after cell attachment is intact
Diluting 514 with DMEM (2% FBS) by gradient dilution with concentrations of 20 μM, 10 μM, 5 μM, 2.5 μM, 1.25 μM, 0.625 μM, 0.3125 μM, 0.15625 μM, 0 μM (equal volume DMSO)
Adding 500 μl of the above different concentrations of 514 to each well, and setting a single well for each concentration gradient except three repeat wells for the 0 μM concentration (double wells for qPCR). • 3. Incubating at 37° C. for 24 hours • 4. Discarding the supernatant, washing once with PBS, and adding trizol at 500/well • 5. RNA extraction (step omitted) • 6. Reverse transcription (step omitted, according to the kit) • 7. qPCR (step omitted, following the kit steps)
• 8. calculation of inhibition rate

HCT116 cells = experiment: CCK8 cell viability assay in HCT116 cells; type: cell-based; conditions: Homo sapiens, HCT-116; Table 2, HCT116 cells, 24 hours
Method: • 1. HCT116 cell plating
Digesting, counting, and plating the cells in 96-well plates (flat bottom, transparent) with 10,000 cells/100 ul DMEM (10% FBS) per well; • 2. Observing the state of cells on the next day, and start dosing after cell attachment is intact; • 3. diluting 514 with DMEM (2% FBS) by gradient dilution with concentrations of 20 μM, 10 μM, 5 μM, 2.5 μM, 1.25 μM, 0.625 μM, 0.3125 μM, 0.15625 μM, 0 μM (equal volume of DMSO); • 4. Adding 100 μl of the above different concentrations of 514 to each well, and making two repeat wells for each concentration gradient; leaving three blank wells (only adding DMEM 2% FBS culture medium without cells). • 5. Culturing at 37° C. for 24 hours; • 6. Adding 10 μl CCK-8 enhanced solution to each well: due to the small amount added of CCK-8 in each well, it may cause errors resulting from the reagent staining on the wall of the well. It is recommended to gently tap the culture plate after adding the reagent to help mixing; • 7. Incubating in the incubator for 0.5-4 hours: the amount of Formazan formed is not the same for different cell types, in most cases, incubation for 1 hour is enough. If the color development is not enough, incubation can be continued to determine optimal conditions. • 8. Measuring the absorbance at 450 nm and 600 nm (excluding the interference of the background color of the reagent and the absorbance value of the well plate itself); • 9. Using OD450 nm-OD600 nm for the final absorbance, and calculating the inhibition rate:
[formula] • As: absorbance of experimental wells (medium containing cells, CCK-8, drug to be tested); • Ac: absorbance of control wells (medium containing cells, CCK-8, and no drug to be tested); • Ab: absorbance of blank wells (medium without cells and drug to be tested, CCK-8). (3) qPCR • 1. HCT116 cell plating

[1] = Table 1.3, compounds 15-20, read-out: BCL-9 avidity FP IC50
[2] = Table 2, FP (BCL-9 affinity), read-out: FP
[3] = Table 1.2, compounds 7-16, read-out: BCL-9 avidity FP IC50
[4] = Table 1.1, compounds 1-6, read-out: BCL-9 avidity FP IC50

Row | IC50 (BCL9/β-catenin; [1]) | IC50 (BCL9/β-catenin; [2]) | IC50 (Human AXIN2) | IC50 (HCT116 cells) | IC50 (BCL9/β-catenin; [3]) | IC50 (BCL9/β-catenin; [4]) | Compound
1 | 10 to 20 µM | 10 to 20 µM | 10 to 20 µM | 2.79 µM | – | – | CN(c1cccc(N2CCC[C@@H](C(=O)N(Cc3ccc(-c4cn[nH]c4)cc3)C3CC3)C2)c1)C(C)(C)C(=O)N1CCNCC1 [Compound 16, (3R)-N-cyclopropyl-1-(3-{methyl[2-methyl-1-oxo-1-(piperazin-1-yl)propan-2-yl]amino}phenyl)-N-{[4-(1H-pyrazol-4-yl)phenyl]methyl}piperidine-3-carboxamid]
2 | – | 10 to 20 µM | 10 to 50 µM | 10 to 50 µM | > 10 µM | – | CC(C)(Oc1ccc(Cl)c(N2CCC[C@@H](C(=O)N(Cc3ccc(-c4cn[nH]c4)cc3)C3CC3)C2)c1)C(=O)N1CCNCC1 [Compound 9]
3 | – | 10 to 50 µM | 10 to 50 µM | 10 to 50 µM | – | > 10 µM | CC(C)(Oc1cccc(N2CC(C(=O)N(Cc3ccc(-c4cn[nH]c4)cc3)C3CC3)CC(C3CCCCC3)C2)c1)C(=O)N1CCNCC1 (stereo not shown) [Compound 1, 5-cyclohexyl-N-cyclopropyl-1-(3-{[2-methyl-1-oxo-1-(piperazin-1-yl)propan-2-yl]oxy}phenyl)-N-{[4-(1H-pyrazol-4-yl)phenyl]methyl}piperidine-3-carboxamide]
4 | – | 10 to 50 µM | 10 to 20 µM | 10 to 50 µM | – | > 10 µM | CC(C)(Oc1cccc(N2CC(C(=O)N(Cc3ccc(-c4cn[nH]c4)cc3)C3CC3)CC(c3ccccc3)C2)c1)C(=O)N1CCNCC1 (stereo not shown) [Compound 2, N-cyclopropyl-1-(3-{[2-methyl-1-oxo-1-(piperazin-1-yl)propan-2-yl]oxy}phenyl)-5-phenyl-N-{[4-(1H-pyrazol-4-yl)phenyl]methyl}piperidine-3-carboxamide]
5 | – | 10 to 50 µM | 10 to 50 µM | 10 to 50 µM | – | – | CC(C)C1CC=C(c2ccc(CN(C(=O)C3CC(c4ccccc4)CN(c4cccc(OC(C)(C)C(=O)N5CCNCC5)c4)C3)C3CC3)cc2)CC1 (racemic) [Compound 4, N-cyclopropyl-1-(3-{[2-methyl-1-oxo-1-(piperazin-1-yl)propan-2-yl]oxy}phenyl)-5-phenyl-N-({4-[4-(propan-2-yl)cyclohex-1-en-1-yl]phenyl}methyl)piperidine-3-carboxamide]
6 | – | 7.75 µM | 10 to 20 µM | 10 to 20 µM | – | 7.75 µM | CC(C)(Oc1cccc(N2CC(C(=O)N(Cc3ccc(C4=CCCCC4)cc3)C3CC3)CC(c3ccccc3)C2)c1)C(=O)N1CCNCC1 (racemic) [Compound 6, N-{[4-(cyclohex-1-en-1-yl)phenyl]methyl}-N-cyclopropyl-1-(3-{[2-methyl-1-oxo-1-(piperazin-1-yl)propan-2-yl]oxy}phenyl)-5-phenylpiperidine-3-carboxamide]
7 | – | 10 to 20 µM | 10 to 20 µM | 10 to 50 µM | > 10 µM | – | CC(C)(Oc1cccc(N2CCC[C@@H](C(=O)N(Cc3ccc(-c4cn[nH]c4)c(Cl)c3)C3CC3)C2)c1)C(=O)N1CCNCC1 [Compound 12, (3R)-N-{[3-chloro-4-(1H-pyrazol-4-yl)phenyl]methyl}-N-cyclopropyl-1-(3-{[2-methyl-1-oxo-1-(piperazin-1-yl)propan-2-yl]oxy}phenyl)piperidine-3-carboxamide]
8 | 10 to 20 µM | 10 to 20 µM | 10 to 20 µM | 2.42 µM | – | – | CC(C)(Nc1cccc(N2CCC[C@@H](C(=O)N(Cc3ccc(-c4cn[nH]c4)cc3)C3CC3)C2)c1)C(=O)N1CCNCC1 [Compound 15, (3R)-N-cyclopropyl-1-(3-{[2-methyl-1-oxo-1-(piperazin-1-yl)propan-2-yl]amino}phenyl)-N-{[4-(1H-pyrazol-4-yl)phenyl]methyl}piperidine-3-carboxamide]

The next lines start with the compound.

Row | Compound | IC50 (BCL9/β-catenin; [1]) | IC50 (BCL9/β-catenin; [2]) | IC50 (Human AXIN2) | IC50 (HCT116 cells) | IC50 (BCL9/β-catenin; [3]) | IC50 (BCL9/β-catenin; [4])
9 | CC(C)(Oc1cccc(N2CC(C(=O)N(Cc3ccc(-c4ccccc4)cc3)C3CC3)CC(c3ccccc3)C2)c1)C(=O)N1CCNCC1 (racemic) [Compound 5, N-cyclopropyl-1-(3-{[2-methyl-1-oxo-1-(piperazin-1-yl)propan-2-yl]oxy}phenyl)-5-phenyl-N-[(4-phenylphenyl)methyl]piperidine-3-carboxamide] | – | 6.2 µM | 10 to 20 µM | 10 to 20 µM | – | 2.25 µM
10 | CC(C)(Oc1cccc(N2CC(C(=O)N(Cc3ccc(-c4c[nH]c5ncccc45)cc3)C3CC3)CC(c3ccccc3)C2)c1)C(=O)N1CCNCC1 (racemic) [Compound 3, N-cyclopropyl-1-(3-{[2-methyl-1-oxo-1-(piperazin-1-yl)propan-2-yl]oxy}phenyl)-5-phenyl-N-[(4-{1H-pyrrolo[2,3-b]pyridin-3-yl}phenyl)methyl]piperidine-3-carboxamide] | – | 2.76 µM | 10 to 20 µM | 10 to 20 µM | – | 2.76 µM
11 | CC(C)(Oc1cccc(N2CCC[C@@H](NC(=O)N(Cc3ccc(-c4cn[nH]c4)cc3)C3CC3)C2)c1)C(=O)NCCN [Compound 18, N-(2-aminoethyl)-2-{3-[(3R)-3-{[cyclopropyl({[4-(1H-pyrazol-4-yl)phenyl]methyl})carbamoyl]amino}piperidin-1-yl]phenoxy}-2-methylpropanamide] | 10 to 20 µM | 10 to 20 µM | 2.54 µM | 3.46 µM | – | –
12 | CC(C)(Oc1ccc(Cl)c(N2CCC[C@@H](C(=O)N(Cc3ccc(C4=CCCCC4)cc3)C3CC3)C2)c1)C(=O)N1CCNCC1 [Compound 10, (3R)-1-(2-chloro-5-{[2-methyl-1-oxo-1-(piperazin-1-yl)propan-2-yl]oxy}phenyl)-N-{[4-(cyclohex-1-en-1-yl)phenyl]methyl}-N-cyclopropylpiperidine-3-carboxamide] | – | 2.7 µM | 10 to 20 µM | 10 to 20 µM | 2.7 µM | –
13 | CC(C)(Oc1cccc(N2CCC[C@@H](C(=O)N(Cc3ccc(-c4c[nH]c5ncccc45)cc3)C3CC3)C2)c1Cl)C(=O)N1CCNCC1 [Compound 8, (3R)-1-(2-chloro-3-{[2-methyl-1-oxo-1-(piperazin-1-yl)propan-2-yl]oxy}phenyl)-N-cyclopropyl-N-[(4-{1H-pyrrolo[2,3-b]pyridin-3-yl}phenyl)methyl]piperidine-3-carboxamide] | – | 10 to 50 µM | 10 to 50 µM | 10 to 20 µM | > 10 µM | –
14 | CC(C)(Oc1ccc(Cl)c(N2CCC[C@@H](C(=O)N(Cc3ccc(-c4c[nH]c5ncccc45)cc3)C3CC3)C2)c1)C(=O)N1CCNCC1 [Compound 11, (3R)-1-(2-chloro-5-{[2-methyl-1-oxo-1-(piperazin-1-yl)propan-2-yl]oxy}phenyl)-N-cyclopropyl-N-[(4-{1H-pyrrolo[2,3-b]pyridin-3-yl}phenyl)methyl]piperidine-3-carboxamide] | – | 2.44 µM | 10 to 20 µM | 10 to 20 µM | 2.44 µM | –
